Results on 19 compounds are retold here after ChEMBL document CHEMBL1909046, “DrugMatrix in vitro pharmacology data”.

Data set [1] deals with T1, Neuropeptide Y receptor type 2 (Homo sapiens, UniProt P49146).
T1 sequence (P49146 whole entry): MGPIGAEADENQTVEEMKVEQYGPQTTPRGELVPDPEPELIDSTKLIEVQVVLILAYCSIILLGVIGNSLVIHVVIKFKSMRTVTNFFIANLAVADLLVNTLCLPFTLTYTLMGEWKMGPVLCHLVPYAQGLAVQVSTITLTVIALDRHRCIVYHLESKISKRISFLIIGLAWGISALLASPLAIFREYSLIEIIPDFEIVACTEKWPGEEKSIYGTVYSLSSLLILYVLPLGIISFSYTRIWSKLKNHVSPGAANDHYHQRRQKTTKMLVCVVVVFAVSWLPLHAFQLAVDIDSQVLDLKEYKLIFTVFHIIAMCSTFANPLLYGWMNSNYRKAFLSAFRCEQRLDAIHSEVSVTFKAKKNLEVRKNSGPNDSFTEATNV
Type of data set: cell membranes, Membrane. Particulars: kan-ts.

Data set [2] deals with Voltage-gated inwardly rectifying potassium channel KCNH2 (Homo sapiens, UniProt Q12809). The note with it: hek293.
In another data set the target is Adenosine receptor A2a (Homo sapiens, UniProt P29274). Kind of data set: DRUGMATRIX: Adenosine A2A radioligand binding (ligand: […]). Particulars: Not Active = under 50% inhibition at 10 µM; for Ki: read-out: Ki. The data set is classed as cell membranes, HEK293, Membrane.
In data set [3] the target is T2, Alpha-2A adrenergic receptor (Homo sapiens, UniProt P08913). Also: in other assays of this panel Not Active means under 50% inhibition at 10 µM.
T2 sequence (P08913 whole entry): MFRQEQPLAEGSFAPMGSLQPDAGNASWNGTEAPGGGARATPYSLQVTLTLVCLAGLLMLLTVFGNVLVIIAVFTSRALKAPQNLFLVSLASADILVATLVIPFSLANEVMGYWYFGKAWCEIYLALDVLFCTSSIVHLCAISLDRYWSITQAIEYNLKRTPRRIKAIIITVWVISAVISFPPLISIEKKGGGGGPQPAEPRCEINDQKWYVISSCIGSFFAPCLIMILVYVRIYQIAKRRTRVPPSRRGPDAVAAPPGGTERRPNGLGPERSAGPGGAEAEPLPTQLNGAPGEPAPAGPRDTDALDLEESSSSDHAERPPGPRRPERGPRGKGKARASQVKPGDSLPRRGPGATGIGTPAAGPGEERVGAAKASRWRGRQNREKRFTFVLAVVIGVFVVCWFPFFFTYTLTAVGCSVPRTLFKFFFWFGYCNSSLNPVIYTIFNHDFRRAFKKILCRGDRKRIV
Type of data set: cell membranes, Sf9, Membrane. The note with it: for Ki: read-out: Ki.

Data set [4] has as its target T3, Angiotensin-converting enzyme (Oryctolagus cuniculus, UniProt P12822).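 Also: enzymatic inhibition of angiotensin-converting enzyme measured with FAPGG as the substrate; in other assays of this panel Not Active means under 50% inhibition at 10 µM.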
T3 sequence (P12822 whole entry): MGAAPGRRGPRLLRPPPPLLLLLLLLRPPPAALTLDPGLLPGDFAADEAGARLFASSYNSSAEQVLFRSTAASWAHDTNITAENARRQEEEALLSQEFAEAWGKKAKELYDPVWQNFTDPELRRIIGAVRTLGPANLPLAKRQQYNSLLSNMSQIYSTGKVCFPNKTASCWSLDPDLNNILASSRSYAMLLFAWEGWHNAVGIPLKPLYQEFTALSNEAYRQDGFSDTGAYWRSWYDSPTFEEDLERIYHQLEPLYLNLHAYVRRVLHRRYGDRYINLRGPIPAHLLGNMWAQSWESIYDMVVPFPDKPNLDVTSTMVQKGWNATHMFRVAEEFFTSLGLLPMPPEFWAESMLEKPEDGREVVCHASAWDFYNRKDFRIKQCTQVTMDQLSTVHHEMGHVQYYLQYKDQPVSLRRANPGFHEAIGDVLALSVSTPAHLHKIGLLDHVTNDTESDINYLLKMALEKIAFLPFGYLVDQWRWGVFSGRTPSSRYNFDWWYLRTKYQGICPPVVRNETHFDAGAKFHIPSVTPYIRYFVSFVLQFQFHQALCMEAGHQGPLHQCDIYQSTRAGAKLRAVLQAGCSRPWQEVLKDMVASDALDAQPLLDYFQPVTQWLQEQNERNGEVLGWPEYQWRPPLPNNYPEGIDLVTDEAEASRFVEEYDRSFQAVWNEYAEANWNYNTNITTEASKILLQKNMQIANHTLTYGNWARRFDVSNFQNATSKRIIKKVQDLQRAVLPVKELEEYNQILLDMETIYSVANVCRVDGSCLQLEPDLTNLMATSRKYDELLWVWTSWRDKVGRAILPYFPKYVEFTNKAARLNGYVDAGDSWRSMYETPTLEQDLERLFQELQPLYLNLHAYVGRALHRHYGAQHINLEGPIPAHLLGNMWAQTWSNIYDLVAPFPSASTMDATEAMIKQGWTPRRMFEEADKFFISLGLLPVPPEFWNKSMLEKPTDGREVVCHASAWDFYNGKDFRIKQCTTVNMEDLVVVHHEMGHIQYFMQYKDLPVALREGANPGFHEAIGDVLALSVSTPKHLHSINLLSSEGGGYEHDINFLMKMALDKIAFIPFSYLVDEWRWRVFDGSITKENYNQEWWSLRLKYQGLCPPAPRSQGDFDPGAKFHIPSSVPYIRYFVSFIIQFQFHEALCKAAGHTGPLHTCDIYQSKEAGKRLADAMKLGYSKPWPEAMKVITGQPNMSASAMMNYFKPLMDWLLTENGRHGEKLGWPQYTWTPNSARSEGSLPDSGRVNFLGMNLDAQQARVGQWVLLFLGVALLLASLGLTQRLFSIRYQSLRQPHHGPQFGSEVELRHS
The data set is classed as tissue-based, Lung.

In data set [5] the target is Mitogen-activated protein kinase 14 (Homo sapiens, UniProt Q16539). More on the design: species or system Escherichia coli.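 Also: inhibition of p38alpha enzyme activity in a biochemical kinase assay, with myelin basic protein serving as substrate; in other assays of this panel Not Active means under 50% inhibition at 10 µM.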

One may read the IC50 as the concentration needed to halve the response being measured. For orientation: Ki means the dissociation constant of the complex between target and ligand, obtained from inhibition or displacement.

Chain of Mitogen-activated protein kinase 14 (Q16539 whole entry): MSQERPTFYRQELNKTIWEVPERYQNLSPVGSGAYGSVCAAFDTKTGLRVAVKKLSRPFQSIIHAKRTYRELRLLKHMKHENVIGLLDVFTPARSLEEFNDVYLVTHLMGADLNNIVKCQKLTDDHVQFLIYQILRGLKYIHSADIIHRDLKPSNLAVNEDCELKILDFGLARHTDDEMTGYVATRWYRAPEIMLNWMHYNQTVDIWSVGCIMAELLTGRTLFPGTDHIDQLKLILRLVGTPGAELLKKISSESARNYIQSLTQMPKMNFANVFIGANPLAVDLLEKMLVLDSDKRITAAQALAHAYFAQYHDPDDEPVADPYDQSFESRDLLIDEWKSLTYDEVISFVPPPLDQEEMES
Chain of Adenosine receptor A2a (P29274 whole entry): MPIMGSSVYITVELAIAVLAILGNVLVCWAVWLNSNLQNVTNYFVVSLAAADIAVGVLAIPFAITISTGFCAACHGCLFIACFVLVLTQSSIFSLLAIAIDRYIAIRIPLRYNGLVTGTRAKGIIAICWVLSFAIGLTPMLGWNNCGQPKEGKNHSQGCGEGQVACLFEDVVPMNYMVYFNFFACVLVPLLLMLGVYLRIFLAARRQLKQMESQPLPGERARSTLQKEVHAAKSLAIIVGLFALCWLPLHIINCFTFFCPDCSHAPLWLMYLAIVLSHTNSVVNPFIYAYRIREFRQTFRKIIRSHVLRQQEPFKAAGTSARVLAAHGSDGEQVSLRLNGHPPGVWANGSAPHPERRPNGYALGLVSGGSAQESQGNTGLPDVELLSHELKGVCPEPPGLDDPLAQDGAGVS
Chain of Voltage-gated inwardly rectifying potassium channel KCNH2 (Q12809 whole entry): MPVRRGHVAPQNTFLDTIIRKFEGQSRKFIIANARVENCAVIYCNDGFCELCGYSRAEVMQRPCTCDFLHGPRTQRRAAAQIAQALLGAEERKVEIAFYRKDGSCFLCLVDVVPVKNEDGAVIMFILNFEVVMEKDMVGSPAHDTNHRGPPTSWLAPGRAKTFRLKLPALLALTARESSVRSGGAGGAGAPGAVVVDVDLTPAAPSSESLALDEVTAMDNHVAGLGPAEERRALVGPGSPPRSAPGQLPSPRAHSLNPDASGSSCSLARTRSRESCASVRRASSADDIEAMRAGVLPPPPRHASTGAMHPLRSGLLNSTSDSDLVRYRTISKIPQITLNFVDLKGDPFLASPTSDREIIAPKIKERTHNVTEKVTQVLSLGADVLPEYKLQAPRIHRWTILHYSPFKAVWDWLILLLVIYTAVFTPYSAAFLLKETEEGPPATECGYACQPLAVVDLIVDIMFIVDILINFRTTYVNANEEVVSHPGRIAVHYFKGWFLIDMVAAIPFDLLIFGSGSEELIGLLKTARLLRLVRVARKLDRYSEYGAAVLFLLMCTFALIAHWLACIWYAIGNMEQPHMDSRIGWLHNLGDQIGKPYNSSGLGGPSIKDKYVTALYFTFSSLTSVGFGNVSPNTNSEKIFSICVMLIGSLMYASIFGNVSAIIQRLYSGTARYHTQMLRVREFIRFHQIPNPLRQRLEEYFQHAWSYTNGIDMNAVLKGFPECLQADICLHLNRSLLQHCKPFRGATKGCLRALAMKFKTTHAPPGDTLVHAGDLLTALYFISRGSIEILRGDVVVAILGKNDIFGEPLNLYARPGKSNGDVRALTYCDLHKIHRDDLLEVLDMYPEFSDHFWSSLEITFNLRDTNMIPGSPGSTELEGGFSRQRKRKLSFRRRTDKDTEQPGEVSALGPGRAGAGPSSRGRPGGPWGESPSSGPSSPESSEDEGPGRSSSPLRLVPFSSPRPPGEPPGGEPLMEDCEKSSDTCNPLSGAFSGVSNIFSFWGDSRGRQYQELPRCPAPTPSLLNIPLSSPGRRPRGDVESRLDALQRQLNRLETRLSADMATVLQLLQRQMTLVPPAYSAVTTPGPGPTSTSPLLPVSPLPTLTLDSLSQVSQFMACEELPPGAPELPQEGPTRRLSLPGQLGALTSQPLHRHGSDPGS

In the case of `COc1cc(N)nc2[nH]c(-c3ccc(F)cc3)c(-c3ccncc3)c12`, the IC50 entry in data set [1] is “Not Active”; in data set [2], “Not Active”; on Adenosine receptor A2a (read-out: IC50), 1030 nM; in data set [3] (sf9) it was “Not Active”; in data set [4] it was “Not Active”. The Ki entry in data set [2] is “Not Active”; on Adenosine receptor A2a it was 580 nM.
As for `CNS(=O)(=O)Cc1ccc2[nH]cc(CCN(C)C)c2c1`, the IC50 entry (in data set [1]; in data set [2]; at Adenosine receptor A2a (hek293); in data set [3] (sf9); in data set [4]; in data set [5]) was “Not Active” throughout. In data set [2], the inhibition constant Ki result is listed as “Not Active”.
In the case of `CCCc1nn(C)c2c(=O)[nH]c(-c3cc(S(=O)(=O)N4CCN(C)CC4)ccc3OCC)nc12`, the IC50 result is “Not Active” in data set [1]; 253 nM on Adenosine receptor A2a (read-out: IC50); “Not Active” in data set [3] (sf9); “Not Active” in data set [4]; “Not Active” in data set [5]. For the same compound, at Adenosine receptor A2a, the Ki turned out to be 142 nM.
Take `COc1ccc(/C=C/C(=O)Nc2ccccc2C(=O)O)cc1OC`: the IC50 entry (in data set [1]; in data set [2]; at Adenosine receptor A2a (hek293); in data set [3] (sf9); in data set [4]; in data set [5]) was “Not Active” in each case. In addition, in data set [2], the inhibitory constant (Ki) result was “Not Active”.
For `CCOC(N)=O`, the 50% inhibitory concentration (IC50) entry (in data set [1]; in data set [2]; at Adenosine receptor A2a (hek293); in data set [3] (sf9); in data set [4]; in data set [5]) was “Not Active” each time. In addition, in data set [2], the Ki result is given as “Not Active”.
Take `CC(=O)Nc1nnc(S(N)(=O)=O)s1` [ACETAZOLAMIDE]: the half-inhibitory concentration (IC50) result (in data set [1]; in data set [2]; on Adenosine receptor A2a (hek293); in data set [3] (sf9); in data set [4]; in data set [5]) was “Not Active” throughout. The inhibition constant Ki result in data set [2] is recorded as “Not Active”.
Regarding `O=c1[nH]c2ccccc2n1CCCN1CCC(n2c(=O)[nH]c3cc(Cl)ccc32)CC1` [DOMPERIDONE], the IC50 entry (in data set [1]; in data set [2]; on Adenosine receptor A2a (hek293); in data set [4]; in data set [5]) was “Not Active” throughout. Further, the Ki result in data set [2] was “Not Active”.
Turning to `CC1=C(CC(=O)O)c2cc(F)ccc2/C1=C\c1ccc(S(C)(=O)=O)cc1` [EXISULIND], the concentration for half-maximal inhibition (IC50) entry (in data set [1]; in data set [2]; on Adenosine receptor A2a (hek293); in data set [3] (sf9); in data set [4]; in data set [5]) was “Not Active” throughout. In addition, in data set [2], the Ki result is listed as “Not Active”.
For `CC(C)OC(=O)C(C)(C)Oc1ccc(C(=O)c2ccc(Cl)cc2)cc1` [FENOFIBRATE], the IC50 entry (in data set [1]; in data set [2]; on Adenosine receptor A2a (hek293); in data set [3] (sf9); in data set [4]; in data set [5]) was “Not Active” in each case. The inhibition constant Ki result in data set [2] is recorded as “Not Active”.
Take `OCCN1CCN(CCCN2c3ccccc3Sc3ccc(C(F)(F)F)cc32)CC1` [FLUPHENAZINE]: the 50% inhibitory concentration (IC50) entry in data set [1] was “Not Active”; on Adenosine receptor A2a (hek293), “Not Active”; in data set [3] (read-out: IC50) it was 215 nM; in data set [4] it was “Not Active”; in data set [5], “Not Active”. The inhibitory constant (Ki) in data set [3] is 80 nM.
Regarding `CN1C2CCCC1CC(NC(=O)c1nn(C)c3ccccc13)C2` (stereo not drawn) [GRANISETRON], the concentration for half-maximal inhibition (IC50) result (in data set [1]; in data set [2]; on Adenosine receptor A2a (hek293); in data set [3] (sf9); in data set [4]; in data set [5]) was “Not Active” in each case. Further, in data set [2], the Ki result was “Not Active”.
For `Nc1nc2c(c(=O)[nH]1)N(C=O)C(CNc1ccc(C(=O)N[C@@H](CCC(=O)O)C(=O)O)cc1)CN2` (stereo partly drawn) [LEUCOVORIN], the 50% inhibitory concentration (IC50) result (in data set [1]; in data set [2]; on Adenosine receptor A2a (hek293); in data set [3] (sf9); in data set [4]; in data set [5]) was “Not Active” throughout. The Ki entry in data set [2] is given as “Not Active”.
As to `C[C@@H](O)[C@H]1C(=O)N2C(C(=O)O)=C(S[C@@H]3CN[C@H](C(=O)N(C)C)C3)[C@H](C)[C@H]12` [MEROPENEM], the IC50 entry (in data set [1]; in data set [2]; on Adenosine receptor A2a (hek293); in data set [3] (sf9); in data set [4]; in data set [5]) was “Not Active” throughout. Moreover, the Ki result in data set [2] is recorded as “Not Active”.
In the case of `CC[C@@H](CO)NC(=O)[C@@H]1C=C2c3cccc4c3c(cn4C)C[C@H]2N(C)C1` [METHYSERGIDE], the half-maximal inhibitory concentration (IC50) result in data set [1] is “Not Active”; in data set [2] it was “Not Active”; at Adenosine receptor A2a (hek293), “Not Active”; in data set [3] (read-out: IC50), 1630 nM; in data set [4] it was “Not Active”; in data set [5] it was “Not Active”. For the same compound, the Ki entry was “Not Active” in data set [2] and 611 nM in data set [3].
As to `CCN(CC)CC#CCOC(=O)C(O)(c1ccccc1)C1CCCCC1` (stereo not drawn) [OXYBUTYNIN], the IC50 entry (in data set [1]; in data set [2]; at Adenosine receptor A2a (hek293); in data set [3] (sf9); in data set [4]; in data set [5]) was “Not Active” each time. For the same compound, in data set [2], the Ki entry is on record as “Not Active”.
Regarding `O=P(O)(O)C(O)(Cc1cccnc1)P(=O)(O)O` [RISEDRONIC ACID], the IC50 entry (in data set [1]; in data set [2]; at Adenosine receptor A2a (hek293); in data set [3] (sf9); in data set [4]; in data set [5]) was “Not Active” throughout. The inhibition constant (Ki) entry in data set [2] is on record as “Not Active”.
For `CN(CCOc1ccc(CC2SC(=O)NC2=O)cc1)c1ccccn1` (stereo not drawn) [ROSIGLITAZONE], the IC50 result (in data set [1]; in data set [2]; on Adenosine receptor A2a (hek293); in data set [3] (sf9); in data set [4]; in data set [5]) was “Not Active” in each case. Besides, in data set [2], the inhibition constant (Ki) result is “Not Active”.
As to `C[C@]12CC[C@H]3[C@@H](CCC4=CC(=O)CC[C@@]43C)[C@@H]1CC[C@@H]2O` [TESTOSTERONE], the IC50 entry (in data set [1]; on Adenosine receptor A2a (hek293); in data set [3] (sf9); in data set [4]; in data set [5]) was “Not Active” each time.
Turning to `O=c1n(CCCN2CCN(c3cccc(Cl)c3)CC2)nc2ccccn12` [TRAZODONE], the IC50 entry (in data set [1]; in data set [2]; at Adenosine receptor A2a (hek293); in data set [4]; in data set [5]) was “Not Active” throughout. In addition, the inhibition constant (Ki) result in data set [2] is reported as “Not Active”.
